What all share (format): cell-based, mouse
One assay deals with ABC1 promoter. The assay is described as follows: pAPR1 luciferase reporter assay (ABC1 promoter) in RAW 264.7 cells. The following applies: 24 hours. The text has this:
Construction of Reporter Plasmids: Plasmid pGL3-Basic (Promega, Madison, Wis.; Cat. #E1751) was used as a control plasmid containing the promoter less luciferase gene. The reporter construct containing the ABC1 promoter and luciferase gene was made by cloning a genomic fragment from the 5′ flanking region of the ABC1 gene (hAPR1 5′ promoter, corresponding to nucleotides 1080-1643 of SEQ ID NO: 3) into the SacI site of the GL3-Basic plasmid to generate plasmid GL-6a. Next, plasmid GL-6a was digested with SpeI and Acc65I. […]
Luciferase Assay: Following transfection, the cells in each well were lysed in 70 μl of 1× cell lysis reagent (Promega, Madison, Wis., Cat. #E3971), subjected to one freeze-thaw cycle, and the lysate cleared by centrifugation for 5 minutes at 12,000 g. […] The luciferase activity of each lysate was measured as light units using a luminometer. Additionally, the β-galactosidase activity of each lysate was measured using the chemiluminescent assay reagents supplied in the Galacto-light kit according to the manufacturer's instructions (Tropix Inc., Bedford, Mass.: Cat. #BL100G). The normalized luciferase activity for each lysate was determined by dividing the luciferase activity value by the determined β-galactosidase value and reported as relative light units. […]
Background: A reporter such as luciferase makes a cellular process visible.

The subject of another assay is RAW 264.7 cells. The experiment in a line: Apo A-I-mediated cholesterol efflux assay in cholesterol-loaded RAW 264.7 macrophage cells. Here is the method: To determine whether ligands for nuclear receptors affect the process of apolipoprotein-mediated cholesterol efflux, various ligands were tested using the apo A-I-mediated cholesterol efflux assay described in Example 12. The nuclear receptor superfamily includes several members, such as the liver receptor LXR, the retinoid receptor RXR, and the peroxisome proliferator-activated receptor PPAR, which have been implicated in lipid metabolism (Russell. D. W., Cell, 97:539-542 (1999); Spiegelman, B. W., Cell, 93:153-155 (1998); Janowski et al., Nature, 383:728-731 (1996)). […] Using the above-described assay, 9 cis-retinoic acid (RXR ligand), oxysterol (LXR ligand), and fenfibrate (PPAR ligand) was tested to determine the effect on cholesterol efflux.
To determine whether eicosanoids affect the process of apolipoprotein-mediated cholesterol efflux, PGE1 and PG12 were tested using the apo A-I-mediated cholesterol efflux assay described in Example 12.

In assay [1] the test system is 5′ flanking region of ABC1. The assay is described as follows: Luciferase reporter assay with ABC1 5′ flanking region constructs in RAW 264.7 cells. Conditions: wild-type sequence nucleotides 1080-1643; single ligand or both together. On the procedure: (§1) Luciferase Assay: Following transfection, the cells in each well were lysed in 70 μl of 1× cell lysis reagent (Promega, Madison, Wis., Cat. #E3971), subjected to one freeze-thaw cycle, and the lysate cleared by centrifugation for 5 minutes at 12,000 g. After centrifugation, 100 μl of luciferase assay reagent (Promega, Madison, Wis.; Cat. #E1501) was added to 10 μl of lysate. The luciferase activity of each lysate was measured as light units using a luminometer. Additionally, the β-galactosidase activity of each lysate was measured using the chemiluminescent assay reagents supplied in the Galacto-light kit according to the manufacturer's instructions (Tropix Inc., Bedford, Mass.: Cat. #BL100G). The normalized luciferase activity for each lysate was determined by dividing the luciferase activity value by the determined β-galactosidase value and reported as relative light units.
Construction of Reporter Constructs: Reporter construct pAPR1 and control reporter construct pGL3-Basic were obtained as described in Example 15. […]
Transfection of Reporter Constructs: The RAW 264.7 cells were maintained in culture and transfected with either pGL3-Basic (1 μg), pAPR1 (1 μg), or one of the other reporter constructs according to the method described in Example 15. […] The luciferase activity was measured and reported as relative light units as described in Example 15.

Another assay has as its system ABC1 mRNA. The experiment in a line: ABC1 mRNA expression by RT-PCR in RAW 264.7 cells. Conditions: 10 μM, 24 hours, serum-free DMEM/BSA. Here is the method:
RT-PCR: Quantitative PCR was carried out using the GeneAmp 5700 Sequence Detection System (Perkin-Elmer Applied Biosystems, Foster City, Calif.). Briefly, 500 ng of DNase-treated mRNA was reverse transcribed using random hexamer primers at 2.5 μM. Approximately 5% of this reaction was amplified by PCR using the SYBR green core kit (PE Applied Biosystems, Foster City, Calif.; Cat. #4304886) and human ABC1 primers LF: 5′-[…] (SEQ ID NO: 11) and LR: 5′-[…] (SEQ ID NO: 12) to yield an 82 bp fragment corresponding to nucleotides 7018-7099 of human ABC1. PCR cycle conditions were as follows: 10 minutes 95° C.; followed by 40 cycles of 95° C., 15 seconds; and 60° C., 60 secounds. The mRNA in each sample was quantitated by detecting the increase in fluorescence caused by SYBR green binding to the double-stranded amplification product generated during each PCR cycle. All samples were run in triplicate and normalized against β-actin mRNA, amplified in parallel reactions with primers actinF: 5′-[…] (SEQ ID NO: 54) and actinB: 5′-[…] […]
Mouse RAW 264.7 cells were grown to subconfluence in DMEM/10% FBS and then treated for 24 hours in serum-free DMEM/BSA with either 9-cis retinoic acid (10 μM), 20-hydroxycholesterol (10 μM), or both ligands together (20 μM total). […] RNA was extracted, treated with DNase, and ABC1 mRNA measured by RT-PCR using PE Biosystems SYBR Green Technology as described in Example 9.

In assay [2] the test system is mutated sterol response element of ABC1 5′ flanking region. The assay is described as follows: Luciferase reporter assay with mutated sterol response element construct (nucleotides 1080-1643) in RAW 264.7 cells. The following applies: mutated sequence; oxysterol 10 μM. Here is the method: as §1
Transfection of Reporter Constructs: The RAW 264.7 cells were maintained in culture and transfected with either pGL3-Basic (1 μg), pAPR1 (1 μg), or one of the other reporter constructs according to the method described in Example 15. […] The luciferase activity was measured and reported as relative light units as described in Example 15. […]

As for `CC1=C(/C=C/C(C)=C\C=C\C(C)=C\C(=O)O)C(C)(C)CCC1` [9-cis retinoic acid], the “increase in luciferase activity compared with EtOH control” value in the assay with ABC1 promoter (9-cis RA 10 μM) was found to be 16 fold. Further, the “increase in apoAI-induced cholesterol efflux” value with RAW 264.7 cells (30 ng/ml, cholesterol-loaded mouse macrophage cells) was roughly 3 fold. Moreover, the “dose dependence of cholesterol efflux from macrophage cells” value with RAW 264.7 cells (0.3, 3.0 or 30 ng/ml) was “dose-dependent manner”. Further, in the assay with RAW 264.7 cells (apo A-I and 9 cis-retinoic acid 30 ng/ml), the cholesterol efflux was 16%. The cholesterol efflux counts is given as 1522 c.p.m in the assay on RAW 264.7 cells (apo A-I plus 0.3 ng/ml 9-cis-RA), 3568 c.p.m with RAW 264.7 cells (apo A-I plus 3.0 ng/ml 9-cis-RA) and 8597 c.p.m in the assay on RAW 264.7 cells (apo A-I plus 30 ng/ml 9-cis-RA). Besides, the “transcriptional response (luciferase activity)” value (from here on “transcriptional response”) in assay [1] was “produced a transcritional response”. Besides, in the assay with ABC1 mRNA, the “change in ABC1 mRNA expression” value is “increase in ABC1 mRNA expression”.

On to `CC(C)CC[C@@H](O)[C@@H](C)[C@H]1CC[C@H]2[C@@H]3CC=C4C[C@@H](O)CC[C@]4(C)[C@H]3CC[C@]12C` [22(R)-hydroxycholesterol], for which the “increase in apoAI-induced cholesterol efflux” value with RAW 264.7 cells (5 μg/ml, cholesterol-loaded mouse macrophage cells) is roughly 3 fold. Moreover, the “effect on cholesterol efflux (data not shown)” value in the assay with RAW 264.7 cells (similar assay, RAW 264.7 cells cholesterol-loaded for 48 hours) is reported as “increase cholesterol efflux”. Further, in assay [2], the “transcriptional response” value is recorded as “did not produce a transcriptional response”.

Consider `CC(C)CCC[C@](C)(O)[C@H]1CC[C@H]2[C@@H]3CC=C4C[C@@H](O)CC[C@]4(C)[C@H]3CC[C@@]21C` [20(S)-hydroxycholesterol], for which, in the assay with ABC1 promoter (20(S) OH-chol 10 μM), the “increase in luciferase reporter activity compared with EtOH control” value is given as 19 fold. The results for the “transcriptional response” value in assay [1] and in assay [2] were “produced a transcritional response” and “did not produce a transcriptional response”, respectively. In the assay on ABC1 mRNA, the “change in ABC1 mRNA expression” value is recorded as “increase in ABC1 mRNA expression”.

For `CCCCC[C@H](O)/C=C/[C@@H]1[C@H]2C/C(=C/CCCC(=O)O)O[C@H]2C[C@H]1O` [PG12, prostacyclin], the “increase in apoAI-induced cholesterol efflux” value with RAW 264.7 cells (25 nm, cholesterol-loaded mouse macrophage cells) is roughly 2 fold. The cholesterol efflux with RAW 264.7 cells (apo A-I and PG12 25 nm) is 10%.

Consider `CCCCC[C@H](O)/C=C/[C@H]1[C@H](O)CC(=O)[C@@H]1CCCCCCC(=O)O` [PGE1, prostaglandin E1], for which the “increase in apoAI-induced cholesterol efflux” value with RAW 264.7 cells (25 nM, cholesterol-loaded mouse macrophage cells) was roughly 3 fold. The cholesterol efflux in the assay with RAW 264.7 cells (apo A-I and PGE1 25 nM) is 15%.

As to `CC(C)OC(=O)C(C)(C)Oc1ccc(C(=O)c2ccc(Cl)cc2)cc1` [fenfibrate], the “increase in cholesterol efflux” value in the assay on RAW 264.7 cells (3 μg/ml, cholesterol-loaded mouse macrophage cells) is roughly 2 fold. The cholesterol efflux in the assay with RAW 264.7 cells (apo A-I and fenfibrate 3 μg/ml) is 10%.
